{
  "source": "patent US9486471B2",
  "about": "“Combination therapy for the treatment of cancer” (McMaster University, priority 2012, dated 2016)",
  "key": {"[1]": {"system": "AML cell lines HL-60, OCI-AML2 and OCI-AML3", "method": "All three lines are leukemic cell lines. HL-60 was derived from promyelocytic AML whereas MV 4-11 and OCI-AML3 are representative of AML. Each compound was incubated with the cells for 72 h. The control was DMSO (ie the vehicle used for the compound) for 72 h. Each condition had three replicates.\nA series of dopamine receptor agonists, D3-antagonists, DR1 & 5-antagonists and multi-receptor antagonists were tested for cytotoxicity against three AML cell lines HL-60, OCI-AML2 and OCI-AML3. Testing was performed as set out in Example 1."}, "[2]": {"system": "normal HSCs and progenitors", "assay": "Methocellulose colony formation of normal HSCs (Example 2)", "format": "cell-based, human", "details": "10 μM", "method": "(§1) Normal HSCs and progenitors were sourced from either mobilized peripheral blood or umbilical cord blood of health patients. Primary AML cells were taken from patients diagnosed with AML. Both normal HSCs and primary AML cells were cultured under standard in vitro methocellulose assay conditions (see http://www.stemcell.com/en/Products/All-Products/MethoCult-H4434-Classic.aspx as well as Clinton Campbell et al. The human stem cell hierarchy is defined by a functional dependence on Mcl-1 for self-renewal capacity. Blood 116 (9) 1433-1442 (Jun. 4, 2010), hereby incorporated by reference) for at least 14 days before the number of colonies were recorded."}, "primary AML cells": {"system": "primary AML cells", "assay": "Methocellulose blast colony formation of primary AML cells (Example 2)", "format": "cell-based, human", "details": "10 μM; control about 22; at least 14 days", "method": "as §1"}, "[3]": {"system": "CD14+ cells in primary AML", "assay": "Flow cytometry frequency of CD14+ cells in primary AML", "format": "cell-based, human", "details": "10 μM, 72 h; control 100%"}, "[4]": {"system": "neoplastic hPSCs (v1H9-Oct4-GFP)", "assay": "Flow cytometry of Oct4 in neoplastic hPSCs", "format": "cell-based, human"}, "[5]": {"system": "p53 and p21 in neoplastic hPSCs", "assay": "p53 and p21 accumulation in neoplastic hPSCs", "format": "cell-based, human", "details": "24 h; 10 μM etoposide, 10 μM thioridazine, BMP4", "description": "Antibodies. Antibodies used for immunocytochemistry were the following: Oct3/4 (BD Trunsduction Laboratories, cat#611203), Sox2 (R&D, cat#AF2018). To detect human hematopoietic cells, Pacific Blue-, PE-, APC- or FITC labeled anti-human CD45 was used (BD Biosciences). FITC anti-CD33, PE anti-CD13, FITC anti-CD41a, FITC anti-HLA DR, and PE anti-CD19 antibodies were obtained from BD Pharmingen. PE anti-CD14, PE anti-CD15 and PE anti-GlyA were acquired from Immunotech Beckman Coulter. To determine pluripotency, PE anti-SSEA3 (BD Biosciences) and PE- or AlexaFluor488 anti-Oct4 (BD Biosciences). Rabbit anti-human dopamine receptor antibodies; DRD1 (Cat#324390), DRD2 (Cat#324393), DRD3 (Cat#324402), DRD4 (Cat#324405) and DRD5 (Cat#324408) were sourced from EMD Chemical. Anti-rabbit Alexa-Fluor-488 (Molecular Probes) was used as the secondary antibody. Primary anti-p53 (Cat#2527) and anti-p21 (Cat#2947) rabbit IgG sourced from Cell Signaling Technology were used to stain fixed and permeabilized cells. Anti-rabbit alexa-Fluor-546 (Molecular Probes) was used as the secondary antibody."}, "[6]": {"system": "hematopoietic stem and progenitor cells (HSPC, CB lin-)", "assay": "Methylcellulose colony-forming assay, HSPC (CB lin-)", "details": "24 h treatment, colonies scored after 14 days", "method": "AML/HPSC Cell Culture. AML cell lines, namely, OCI-AML2 (M4), OCI-AML3 (M4), HL-60 (M2) and MV-4-11(M5) were cultured in RPMI (Gibco) supplemented with 5% heated-inactivated FBS (HyClone). For DR agonist studies with R(+)-7-Hydroxy-DPAT hydrobromide (Sigma), serum-free conditions were employed instead due to the prevalence of dopamine in FBS (Little et al., 2002). AML patient blasts were cultured in IMDM supplemented with 5% heated inactivated FBS (HyClone), 5 ng/mL IL3 (R&D systems), 5×10^−5 M β-mercaptoethanol (Sigma) and BIT (StemCell Technologies). HSC media contained IMDM supplemented with 1% BSA (Sigma), 100 ng/mL SCF (R&D systems), 100 ng/mL Flt-3L (R&D systems) and 20 ng/mL TPO (R&D systems). Patient HSPC and AML samples were treated with compound or DMSO-vehicle (0.1%) for 24 h prior to CFU plating or xenotransplantation studies.\nMethylcellulose Colony-Forming Assay. AML patient or CB lin− cells were cultured 24 hours in the presence of compound or DMSO-vehicle (0.1%) control. AML cells were plated at 50 000 cells/mL in Methocult GF H4434 (Stem Cell Technologies). CB lin− cells were plated at 1000 cells/mL in Methocult GF H4434 (Stem Cell Technologies). Colonies were scored after 14 days of culture using standard morphological criteria."}, "[7]": {"system": "patient AML cells (CD11b)", "assay": "Frequency of CD11b granulocytic cells in cultured patient AML cells", "format": "cell-based, human", "details": "10 μM, up to 96 hours"}, "[8]": {"system": "AML LSCs (CD45+CD33+ blast engraftment)", "assay": "Xenotransplantation of compound-treated AML cells into NSG mice", "format": "in vivo", "method": "Xenotransplantation Assays. NOD.Cg-Prkdc^scid II2rg^tm1Wjl/SzJ adult mice (NSG) were sub-lethally irradiated with 315 rads 24 hours prior transplantation. 0.8-1.0×10^7 AML MNCs or 1.5-1.8×10^5 CB lin-hematopoietic cells treated with compound or DMSO-vehicle for 24 h were injected via tail vein (IV). After 6-10 weeks, animals were culled, and the BM and spleen were analyzed for the presence of human cells by flow cytometry (LSRII, BD) and data was analyzed using FlowJo software (Tree Star Inc). For secondary HSPC transplants, equal number of engrafted human cells from CB lin− transplants were injected IV in adult irradiated NSG mice as described for primary transplants.\nTo delineate whether the inhibition of AML-blasts detected in vitro was due to the compounds affecting the neoplastic stem cell compartment, xenotransplantation studies (Dick, 2008) that functionally define LSCs and hematopoietic stem cells (HSCs) were conducted (FIG. 12)."}, "[9]": {"system": "AML-OCI2 and AML-OCI3 cell lines", "assay": "Volumetric cell counting of AML cell lines treated with DR antagonists and agonists", "format": "cell-based, human", "details": "72 h, serum-free conditions", "protocol": "Volumetric Cell Counting. The number of AML-OCI2 and AML-OCI3 cells present after 72 h treatment with DR antagonists (FIG. 16b) and agonist (FIG. 16c-d) were counted by measuring the number of events within a fixed volume following the grating strategy defined by forward scatter and side scatter clustering, 7AAD− and Hoechst+.\nDue to the bioavailability of dopamine in fetal bovine serum (FBS) (Little et al., 2002), serum-free conditions were employed to assess the role of DRs in AML."}},
  "data": [
    {"molecule": "CSc1ccc2c(c1)N(CCC1CCCCN1C)c1ccccc1S2", "note": "(racemic) [thioridazine, 10-{2-[(RS)-1-Methylpiperidin-2-yl]ethyl}-2-methylsulfanylphenothiazine]", "values": [
      {"measurement": "cytotoxicity of AML cell lines", "setting": "[1]", "result": "significant effect"},
      {"measurement": "cell count", "setting": "[1]; 72 h, relative to control", "result": "eradicate the AML cell lines"},
      {"measurement": "cell pellets of CFU colonies", "setting": "[2]; HSCs", "result": "pelleted cells are still visible"},
      {"measurement": "colony forming potential of normal HSCs", "setting": "[2]; DMSO control about 100, at least 14 days", "result": "about 66 total colonies"},
      {"measurement": "number of CFU colonies of AML cells", "setting": "primary AML cells", "result": 1.6, "unit": "blast colonies"},
      {"measurement": "normalized frequency of CD14+ cells", "setting": "[3]", "result": 20, "unit": "%"},
      {"measurement": "cell number", "setting": "[4]", "result": "reductions"},
      {"measurement": "levels of Oct4", "setting": "[4]", "result": "reductions"},
      {"measurement": "accumulation of cell stress marker p53", "setting": "[5]", "result": "no accumulation"},
      {"measurement": "accumulation of p21", "setting": "[5]", "result": "no accumulation"},
      {"measurement": "HSPC multilineage differentiation", "setting": "[6]", "result": "retaining"},
      {"measurement": "frequency of granulocytic (CD11b) AML-blast cells", "setting": "[7]", "result": "marked increase"},
      {"measurement": "leukemic disease-initiating AML LSC capacity", "setting": "[8]; 10 μM, 24 h ex vivo treatment", "result": "significantly reduce"},
      {"measurement": "level of leukemic engraftment of secondary transplant recipients", "setting": "[8]; secondary recipients, in the absence of thioridazine", "result": "no difference"},
      {"measurement": "number of AML cells", "setting": "[9]", "result": "reduced the number of AML cells"}
    ]}
  ]
}
